In US20030187056A1, “Live cell procedures to identify to identify compounds modulating intracellular distribution of phosphodiesterase( pde) enzymes” (priority 2000, published 2003):
“And” between values parts separate entries of the source, which are not always exact repeats. Equal entries are not always repeated. “Also recorded” adds a separate entry of the source. Where two headings read alike, the source gives them in different places.

Tests used:
PDE3 [1] = assay: PDE3 inhibition (literature values, PDE3/PDE4 specificity); assay type: biochemical; conditions: measure of specificity
From the text: These compounds are termed specific to PDE4, since they inhibit other PDEs either weakly or not at all. The inverse ratio between IC50 of a compound to PDE4s versus its inhibition of other cAMP-degrading PDEs, such as PDE3s is often used as a measure of specificity.

[2] = test system: high affinity Rolipram binding site (HARBS); conditions: Data from Souness and Rao, 1997; cited from earlier work
[3] = molecular target: T1, high affinity Rolipram binding site (HARBS); conditions: read-out: Displacement of [3H] Rolipram (i: μM); Data from Souness and Rao, 1997; cited from earlier work
T1 construct: Displacement of [3H]; Rolipram (i: μM); other: Data from Souness and Rao, 1997

HSPDE4A4-EGFP [4] = molecular target: T2, HSPDE4A4-EGFP (Homo sapiens, UniProt P27815); assay: Spot formation in CHO cells transfected with HSPDE4A4-EGFP; assay type: cell-based; conditions: for formation of spots, compound alone (in words): observed up to 24 hours; for Formation of PDE4A4 spots: yes/no; for cells with spots: 10 μM denbufylline, 24.5 hours
T2 construct: expressed in transfected cells
Description: Chinese hamster ovary cells (CHO), are transfected with the plasmids described in Example 1 above using the transfection agent FuGENE™ 6 (Boehringer Mannheim Corp, USA) according to the method recommended by the suppliers. Stable transfectants are selected using 1 mg/ml G418 sulphate (Calbiochem) in the growth medium (HAM's F12 nutrient mix with Glutamax-1, 10% foetal bovine serum (FBS), 100 μg penicillin-streptomycin mixture ml^−1 (GibcoBRL, supplied by Life Technologies, Denmark). Cell are cultured at 37° C. in 100% humidity and conditions of normal atmospheric gases supplemented with 5% CO2.
For fluorescence microscopy, cells are allowed to adhere to Lab-Tek chambered coverglasses (Nalge Nunc International, Naperville USA) for at least 24 hours and are then cultured to about 80% confluence. Cells can also be grown in plastic 96-well plates (Polyfiltronics Packard 96-View Plate or Costar Black Plate, clear bottom; both types tissue culture treated) for imaging purposes. Prior to experiments, the cells are cultured over night without G418 sulphate in HAM F-12 medium with glutamax, 100 μg penicillin-streptomycin mixture ml^−1 and 10% FBS. This medium has low autofluorescence enabling fluorescence microscopy of cells straight from the incubator. For certain tests requiring medium of defined composition, particularly with regard to the presence of specific cell growth factors, the HAM's culture medium is replaced prior to imaging with a buffered saline solution (KRW buffer) containing (in mM) 3.6 KCl, 140 NaCl, 2 NaHCO3, 0.5 NaH2PO4, 0.5 MgSO4, 1.5 CaCl2, 10 Hepes, 5 glucose, pH7.4.
Changes in cellular distribution of a transfected probe can be imaged and quantified in an automated fashion. For this purpose cells are cultured to near 80% to 90% confluence in coverglass chambers or plastic 96-well plates, given the relevant treatment and allowed to respond. At the end of the response period, cells are fixed in 4% formaldehyde buffer (Lillies fixative buffer, pH7.0: Bie and Berntsen A/S, Denmark) for 30 minutes to 2 hours, then washed in phosphate buffered saline (PBS, Life Technologies, Denmark). Nuclear DNA is stained with 1 μM Hoechst 33258 (Molecular Probes, Eugene, Oreg., USA) in PBS for 10 minutes at 25° C., then washed twice in PBS. Automated images are collected on a Nikon Diaphot 300 (Nikon, Japan) using a Nikon Plan Fluor 20X/0.5NA objective lens. The basic microscope is fitted with a motorised specimen stage and motorised focus control (Prior Scientific, Fulbourn, Cambridge UK), excitation filter wheel (Sutter Instruments, Novato Calif. USA) and Photometrics PXL series camera with a KAF1400 CCD chip (Photometrics, Tucson, Ariz. USA), each of these items being under the control of an Macintosh 7200/90 computer (Apple Computer, Cupertino, Calif. USA). Automation of stage positioning, focus, excitation filter selection, and image acquisition is performed using macros written in-house, running under IPLab Spectrum for Macintosh (Scanalytics, Fairfax, Va. USA). Fluorescence illumination comes from a 100 W HBO lamp. Images are collected in pairs, the first using a 340/10 nm excitation filter, the second with a 475RDF40 excitation filter (Chroma, Brattleboro, Vt.). Both images are collected via the same dichroic and emission filters, which are optimised for EGFP applications (XF100 filter set, Omega Optical, Brattleboro, Vt.). While the choice of filters for imaging the nuclear stain (Hoechst 33258) is not well matched to that dye's spectral properties, resulting in lower image intensity, it greatly improves the throughput of the procedure by allowing both images to be collected using the same dichroic and emission filter. This eliminates any image registration problems and focus shifts which would result from using two different filter sets, which would require more steps in the acquisition procedure and more extensive image processing to overcome.

HSPDE4A1-EGFP [5] = molecular target: T3, HSPDE4A1-EGFP (Homo sapiens, UniProt P27815); assay: Spot dispersal in CHO cells transfected with HSPDE4A1-EGFP; assay type: cell-based; conditions: for dispersal of PDE4A1 spots (in words): Rolipram 2 micromolar 2 hours, others over the ranges tested; for Removal of PDE4A1 spots: yes/no
T3 construct: the ca. 1.95 kb coding region of HSPDE4A1 (GenBank Acc.no. U97584) is amplified; expressed in transfected cells
Description: (§1) […] The cells are then fixed with 4% formalin buffer (pH7) for 1 hour, washed with PBS and stained with 1 μM Hoechst 33258 in PBS for 10 minutes at 25° C., then washed twice in PBS. Automated images are collected and analysed for the number of spots per cell as described in Example 2.
as §1

PDE4A probes = assay: Redistribution of the PDE4A probes (summary); assay type: cell-based; conditions: for redistribution of the PDE4A probes: compound alone
PDE4 [6] = conditions: cited from earlier work; for Inhibition of PDE4 catalytic activity: yes/no
HSPDE4A4-EGFP [7] = molecular target: T2, HSPDE4A4-EGFP; assay: Dispersal of preformed Rolipram-induced spots, HSPDE4A4-EGFP CHO cells; assay type: cell-based; conditions: for Removal of Rolipram-induced PDE4A4-spots: yes/no
Description: For the microscopic assessment of spot dispersal, stably transfected (non-clonal) cells transfected with the HSPDE4A4-EGFP probe are allowed to adhere to chambered coverglasses in HAM's F12 medium containing 10% FBS. […] Chambered coverglasses are then transferred to a Zeiss 135 inverted microscope for time lapse imaging as described in Example 2, above. At a given point after starting an experiment, a mixture of IBMX and forskolin is added to give final concentrations of 1 mM and 50 μM, respectively. Images are captured at regular intervals to form a time lapse sequence of the response, also as described in Example 2.
The plate is then run in the FLIPR system at 37° C., with addition of IBMX and forskolin to all wells at final concentrations of 500 μM and 50 μM respectively after the first minute. The experiment is continued for a further 45 minutes, readings being taken at intervals of 1 minute.
Non-clonal CHO cells stably transfected with the HSPDE4A4-EGFP probe are allowed to adhere to chambered coverglasses in HAM's F12 medium containing 10% FBS and to grow for 24 hours.
Clonal CHO cells stably transfected with the HSPDE4A4-EGFP probe are allowed to adhere to chambered coverglasses in HAM's F12 medium containing 10% FBS and to grow for 5 days without change of medium, which by this time is serum-depleted.
Individual wells are then treated with either 50 μM forskolin plus 500 μM IBMX or 200 nM PMA plus 2 μM ionomycin.

[8] = test system: cAMP-dependent protein kinases (PKA); conditions: cited from earlier work
HSPDE4A1-EGFP [9] = molecular target: T3, HSPDE4A1-EGFP; assay: Competitive assay: reversal of Rolipram-induced spot dispersal, HSPDE4A1-EGFP CHO cells; assay type: cell-based; conditions: yes/no
[10] = human, in vivo; cited from earlier work
HSPDE4A4-EGFP [11] = molecular target: T2, HSPDE4A4-EGFP; assay: Competitive spot assay: inhibition of Rolipram- or RS25344-induced spot formation, HSPDE4A4-EGFP CHO cells; assay type: cell-based
Description: (§2) The cells are then fixed with 4% formaldehyde buffer (pH7) for 1 hour, washed with PBS and stained with 1 μM Hoechst 33258 in PBS for 10 minutes at 25° C., then washed twice in PBS. Automated images are collected and analysed for the number of spots per cell as described in Example 2.
as §2

PDE4 [12] = test system: T4, PDE4; conditions: Saldou et al., 1998; read-out: IC50 against PDE4; cited from earlier work
T4 construct: other: Saldou et al., 1998; Such an enzyme preparation may be obtained from cells transfected with and expressing the PDE4 enzyme chosen

HSPDE4A4-EGFP [13] = assay: Formation of small spots in serum-depleted Rolipram-treated HSPDE4A4-EGFP CHO cells; assay type: cell-based, Homo sapiens; conditions: 1 or 2 μM ionomycin, KRW buffer with 2 μM Rolipram
Description: Clonal CHO cells stably transfected with the HSPDE4A4-EGFP probe are allowed to adhere to chambered coverglasses in HAM's F12 medium containing 10% FBS and to grow for 4 days without change of medium. […] At the end of this time approximately 95% of the cells contain bright spots when viewed on a fluorescence microscope.
Individual wells are then treated first with 1 or 2 μM ionomycin, and then a short time later with 50 μM forskolin plus 500 μM IBMX. Within 1 minute of treatment with ionomycin, at either 1 or 2 μM, small spots form in the cytoplasm of the cells (FIGS. 32a and 32b). This occurs in nearly all cells, whether they contain large Rolipram-induced spots or not. Large spots are not affected in any way during the formation of the smaller spots. The small spots will spontaneously disappear within 10 to 20 minutes. Application of forskolin plus IBMX clears them within minutes (FIG. 33a). The larger spots also disperse in time with this treatment, but more slowly (FIG. 33b). The formation of small spots will not occur in serum-replete cells, or in starved cells that then have been given 10% serum for more than 45 minutes. […] The time course of transient appearance of the small spots of the HSPDE4A4-EGFP probe is consistent with that of the Ca^2+ transient generally elicited by ionomycin in treated cells.

PDE3 [14] = conditions: cited from earlier work
[15] = Data from Souness and Rao, 1997, read-out: PDE4 inhibition (IC50: μM)
[16] = literature values quoted in Example 5 (Saldou 1998; Ahluwalia 1982; Rubin 1991), read-out: IC50 against PDE4

T2 sequence (P27815 whole entry): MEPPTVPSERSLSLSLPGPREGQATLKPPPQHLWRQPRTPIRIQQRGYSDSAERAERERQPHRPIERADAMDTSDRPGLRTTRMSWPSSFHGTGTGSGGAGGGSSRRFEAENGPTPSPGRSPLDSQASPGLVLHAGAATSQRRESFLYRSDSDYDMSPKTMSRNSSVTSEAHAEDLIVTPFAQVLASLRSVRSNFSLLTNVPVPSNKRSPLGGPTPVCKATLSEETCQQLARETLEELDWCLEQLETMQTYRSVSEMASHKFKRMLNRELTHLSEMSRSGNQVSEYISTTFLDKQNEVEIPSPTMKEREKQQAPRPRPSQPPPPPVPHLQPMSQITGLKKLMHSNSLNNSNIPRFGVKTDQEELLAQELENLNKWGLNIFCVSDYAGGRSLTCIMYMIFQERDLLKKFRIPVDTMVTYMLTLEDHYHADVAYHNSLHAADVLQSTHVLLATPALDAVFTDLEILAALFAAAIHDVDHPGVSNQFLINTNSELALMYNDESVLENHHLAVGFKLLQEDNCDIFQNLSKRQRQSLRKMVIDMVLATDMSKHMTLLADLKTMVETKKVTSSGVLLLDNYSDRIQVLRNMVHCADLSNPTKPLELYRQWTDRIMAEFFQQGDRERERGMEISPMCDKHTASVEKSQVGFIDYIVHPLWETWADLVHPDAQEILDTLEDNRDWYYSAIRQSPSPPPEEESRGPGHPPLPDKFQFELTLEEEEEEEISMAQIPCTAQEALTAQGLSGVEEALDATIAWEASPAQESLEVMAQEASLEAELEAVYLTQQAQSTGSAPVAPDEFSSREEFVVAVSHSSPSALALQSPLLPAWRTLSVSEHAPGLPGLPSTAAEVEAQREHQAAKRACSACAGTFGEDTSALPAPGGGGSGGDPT
T3 sequence (P27815 1-647 isoform P27815-4): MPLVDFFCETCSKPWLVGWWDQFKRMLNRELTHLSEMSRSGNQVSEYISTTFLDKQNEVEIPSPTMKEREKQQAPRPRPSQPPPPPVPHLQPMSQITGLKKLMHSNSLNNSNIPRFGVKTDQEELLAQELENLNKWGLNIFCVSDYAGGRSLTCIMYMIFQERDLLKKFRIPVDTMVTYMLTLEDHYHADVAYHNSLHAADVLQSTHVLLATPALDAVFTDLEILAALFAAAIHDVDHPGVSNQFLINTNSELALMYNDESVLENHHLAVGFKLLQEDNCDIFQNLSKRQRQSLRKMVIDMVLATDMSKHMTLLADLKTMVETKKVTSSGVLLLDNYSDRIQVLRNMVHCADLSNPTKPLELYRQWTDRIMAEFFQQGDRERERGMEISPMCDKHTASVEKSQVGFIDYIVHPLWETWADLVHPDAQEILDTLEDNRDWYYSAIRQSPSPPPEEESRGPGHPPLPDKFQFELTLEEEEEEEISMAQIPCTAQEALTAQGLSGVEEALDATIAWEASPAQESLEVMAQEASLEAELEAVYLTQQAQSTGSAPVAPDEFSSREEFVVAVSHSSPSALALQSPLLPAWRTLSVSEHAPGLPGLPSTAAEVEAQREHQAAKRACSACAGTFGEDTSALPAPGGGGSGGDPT

SMILES	PDE4/HARBS, ratio (IC50 PDE4)/(Ki for HARBS) [2]	Ki [3]	formation of spots, compound alone (in words) (HSPDE4A4-EGFP [4])	dispersal of PDE4A1 spots (in words) (HSPDE4A1-EGFP [5])	redistribution of the PDE4A probes (PDE4A probes)	IC50 (PDE4 [6]; [15])	IC50 (PDE4 [6]; [16])	Removal of Rolipram-induced PDE4A4-spots (HSPDE4A4-EGFP [7])	Formation of PDE4A4 spots (HSPDE4A4-EGFP [4])	Reversal of Rolipram-induced removal of PDE4A1 spots (HSPDE4A1-EGFP [9])	Removal of PDE4A1 spots (HSPDE4A1-EGFP [5])	Clinical effect [10]	Emesis [10]	Inhibition of PDE4 catalytic activity (PDE4 [6])	further results
COc1cc2c(cc1OC)-c1cc(=Nc3c(C)cc(C)cc3C)n(C)c(=O)n1CC2 [Trequinsin, 9,10-dimethoxy-2-mesitylimino-3-methyl-3,4,6,7-tetrahydro-2H-pyrimido[6,1-a]isoquinolin-4-one]	023	1.7 µM	Neither compound causes formation of spots	no significant spot dispersal	no redistribution	0.4 µM	1 µM	–	–	–	–	–	–	–	(IC50 PDE3)/(IC50 PDE4) (PDE3 [1]): 0.00041
O=S(=O)(NCCNC/C=C/c1ccc(Br)cc1)c1cccc2cnccc12 [H-89]	–	–	–	–	–	–	–	–	–	–	–	–	–	–	effect on the dispersal of spots induced by IBMX plus forskolin (HSPDE4A4-EGFP [7]; FLIPR, 2 micromolar H-89 pre-treatment 20 minutes): significant effect on the dispersal of spots; IC50 [8]: ~0.05 µM
COc1ccc(C(=O)Nc2c(Cl)cncc2Cl)cc1OC1CCCC1 [RP73401]	–	0.0004 µM	produces no spots	does not disperse spots; also recorded: no significant spot dispersal	induces no redistribution	0.0012 µM	–	yes	no	yes	no	anti-	no	yes	time for dispersal of spots (HSPDE4A4-EGFP [7]; spots formed by 2 μM Rolipram over 16 hours, 1 μM RP73401): ≤ 10 min; cells with spots (HSPDE4A4-EGFP [11]; 2 μM Rolipram plus 0.001 μM RP73401, 7.5 hours): less than 5%; spot formation (in words) (HSPDE4A4-EGFP [11]; 2 μM Rolipram plus 0.003 μM RP73401, 7.5 hours): unable to elicit the production of any spots; also recorded: no spots formed in any of the cells; prevention of the redistribution caused by Rolipram (PDE4A probes; in presence of Rolipram): prevent the redistribution; IC50 (PDE4 [12]): 0.0003 µM
C[C@H](CCC(=O)O)C[C@H](C)C[C@H](C)C(=O)/C=C(\O)[C@H](C)C[C@H](C)C/C=C/[C@@H](C)[C@@H](O)[C@@H](C)[C@@H](O)C[C@@H]1CC[C@@](C)([C@H]2CC[C@@](C)([C@@H](C)O)O2)O1 [ionomycin]	–	–	–	–	–	–	–	–	–	–	–	–	–	–	time to formation of small spots in the cytoplasm (HSPDE4A4-EGFP [13]): ≤ 1 min; cells with bright spots remaining (HSPDE4A4-EGFP [7]; 2 μM ionomycin 50-55 minutes with 2 μM Rolipram, non-clonal, 10% FBS (control 70%)): 20-40% and 20 to 40%; dispersal of Rolipram-induced spots (in words) (HSPDE4A4-EGFP [7]; FBS-replete cells, 200 nM PMA, 2 μM ionomycin, or 50 μM forskolin plus 1 mM IBMX): slowly and in an incomplete manner
CCCCn1c(=O)c2c(ncn2CC(C)=O)n(CCCC)c1=O [Denbufylline]	49	0.0041 µM	–	–	indistinguishable from those induced by Rolipram treatment	0.2 µM	1 µM	no	yes	no	yes	anti-	yes	yes	cells with spots (HSPDE4A4-EGFP [4]): 40%; cells with spots (HSPDE4A4-EGFP [4]; listed as denbufylline): approximately 40%
CN(C(=O)CCCOc1ccc2[nH]c(=O)ccc2c1)C1CCCCC1 [cilostamide]	–	–	do not produce spots	–	no redistribution	–	–	–	–	–	–	–	–	–	IC50 (PDE3 [14]): 0.07 µM; effect on spot formation by 2 μM Rolipram (in words) (HSPDE4A4-EGFP [11]; 500 μM theophylline, 100 μM caffeine, 10 μM milrinone, 0.5 μM cilostamide, 100 μM zaprinast): form the same number and type of bright spots
